Entries after “also recorded” stand apart in the source; their conditions may differ. Ends that are not written are not given here. Peptide text beside a SMILES is read from it.

The subject of assay [1] is male Malpighian tubules. The settings on record: 3 h.
Method: Cytosolic [Ca^2+]cyto or peroxisomal [Ca^2+]perox calcium was measured in tubules expressing transgenic aequorin according to published protocols [88], [89]. Briefly, the tubules were dissected, incubated at room temperature with 2.5 µM coelenterazine to reconstitute aequorin for 3 h. Calcium-dependent aequorin luminescence was measured in 10 biological replicates each containing 20-pairs of tubules. At the end of each experiment, total aequorin was released using 300 µl of lysis buffer (1% (v/v) Triton X-100, 100 mM CaCl2) in order to calculate the total luminescence; and the data were back-integrated using a program written in Perl, based on the method described by Button and Eidsath [90]. Data are presented as the mean (±SEM) and statistical significance was calculated using unpaired t-test.
Assay [2] deals with female tubules. Put plainly: Tubule fluid secretion assay. On the set-up: species or system Drosophila melanogaster. To be noted: sNPF 10^−7 M added at 30 min, average rates before vs after addition. The method, then: (§1) Classical fluid secretion assays were performed as previously described by Dow et al.. Briefly, basal fluid secretion rates of the dissected live tubules were established for 30 min after which the required concentrations of peptides were added and secretion was measured for a further 70 min. The rates of secretion (in nl/min) were represented as the mean (±SEM) of approximately 30–35 tubules coming from 3 independent biological replicates.
(§2) sNPF (AQRSPSLRLRF-NH2) and MIP (AWQSLQSSW-NH2) peptides were synthesised by Biomatik, USA with a purity of greater than 98%. NPF ([…]-NH2) peptide was a kind gift from Professor Ian Orchard (University of Toronto Mississauga). According to the peptide profiles generated by peptide profile calculator (Gene Script, UK), they were dissolved first in water to produce a stock solution of 10 mM and subsequently diluted in the Schneider’s medium to get required final concentrations.

For assay [3], the system named is male tubules. The assay is described as follows: Tubule fluid secretion assay. On the set-up: species or system Drosophila melanogaster. The settings on record: sNPF 10^−7 M added at 30 min, average rates before vs after addition, *** Student's t-test, two tailed, P<0.05, N = 10 tubules (typical trace). The method, then:
as §1, §2

Assay [4] concerns Drosophila SPR. The settings on record: more sensitive to MIP than to SP itself; ref [59]; cited from earlier work. The source says: (§3) Intriguingly, two well-known receptors (for sex peptide and neuropeptide F) are prominently male-enriched (Supporting information S1). Their spatial expression patterns are presented along with their peptide ligands in Supporting information S1. Sex peptide receptor (SPR) is 6.6x male-enriched.

The test system of assay [5] is female. To be noted: transferred with the sperm to the female; ref [58]; cited from earlier work.
From the text: as §3

The test system of assay [6] is right and left tubules. The settings on record: right v. left tubules; chloride conductance under control of leucokinin through intracellular calcium; ref [48], [49]; cited from earlier work. The source says: Bestrophin 2 encodes (of four Drosophila bestrophins) the most closely related to human bestrophin 1, a calcium- and volume-activated chloride channel of retinal pigmented epithelial cells, which is mutated in Best’s macular dystrophy, [44]. However, Bestrophins play wider roles: they are implicated in epithelial-to-mesenchymal transitions in human kidney, and in olfactory transduction. In Drosophila, Best1 also mediates a calcium and volume activated chloride current. FlyAtlas reports that, although expressed in eye, Best2 is abundant in epithelia; in adult tubul ...
For orientation: Calcium assays in cells follow changes in intracellular calcium, usually with a dye or a luminescent sensor.

What is called EC50 is the midpoint of the concentration-response curve. Read a low EC50 as a more potent agent. Consider `CSCC[C@H](NC(=O)[C@@H](NC(=O)[C@H](CC(N)=O)NC(=O)[C@@H](NC(=O)[C@H](CC(=O)O)NC(=O)[C@H](CC(N)=O)NC(=O)[C@H](CCCCN)NC(=O)[C@H](CCCNC(=N)N)NC(=O)[C@@H]1CCCN1C(=O)[C@@H]1CCCN1C(=O)[C@H](CCCNC(=N)N)NC(=O)[C@H](CO)NC(=O)[C@H](CC(N)=O)NC(=O)[C@@H](N)CO)C(C)C)[C@@H](C)O)C(=O)N[C@@H](C)C(=O)N[C@@H](CC(=O)O)C(=O)N[C@@H](C)C(=O)N[C@@H](Cc1ccc(O)cc1)C(=O)N[C@@H](CCCCN)C(=O)N[C@@H](Cc1ccccc1)C(=O)N[C@@H](CC(C)C)C(=O)N[C@@H](CCC(N)=O)C(=O)N[C@@H](CC(=O)O)C(=O)N[C@@H](CC(C)C)C(=O)N[C@@H](CC(=O)O)C(=O)N[C@H](C(=O)N[C@@H](Cc1ccc(O)cc1)C(=O)N[C@@H](Cc1ccc(O)cc1)C(=O)NCC(=O)N[C@@H](CC(=O)O)C(=O)N[C@@H](CCCNC(=N)N)C(=O)N[C@@H](C)C(=O)N[C@@H](CCCNC(=N)N)C(=O)N[C@H](C(=O)N[C@@H](CCCNC(=N)N)C(=O)N[C@@H](Cc1ccccc1)C(N)=O)C(C)C)[C@@H](C)O` [NPF, neuropeptide F] (H-SNSRPPRKNDVNTMADAYKFLQDLDTYYGDRARVRF-NH2), for which the half-maximal effective concentration (EC50) in assay [1] came to 6 nM.

Consider “AQRSPSLRLRF-NH2 [sNPF, short neuropeptide F, distantly related peptide, the so called short neuropeptide F; synthesised by Biomatik]”, for which the Resting fluid secretion entry in assay [2] was “not female; also recorded: only of male tubules”; in assay [3], “inhibits fluid secretion in male; also recorded: inhibits resting fluid secretion”. On to “AWQSLQSSW-NH2 [allatostatin-B, the Drosophila MIP, allatostatin-B]”, for which the “Sensitivity of Drosophila SPR relative to SP” value in assay [4] is reported as 10 x. With “Sex peptide: transferred with the sperm to the female (WEWPWNRKPTKFPIPSPNPRDKWCRLNLGPAWGGRC; ends and bridges not checked; cysteine pairing not given here; UniProt P05623 20-55, looked up)”, the “Change in female physiology and behaviour” value in assay [5] is on record as “a reduction in receptivity to subsequent matings”. Regarding “leucokinin: diuretic neuropeptide leucokinin, which acts through intracellular calcium (NSVVLGKKQRFHSWG; ends and bridges not checked; UniProt P81829 133-147, looked up)”, in assay [6], the “Action on right and left tubules” value was “acts equally on both right and left tubules”.

(Values after article PMC3319558, “Functional Correlates of Positional and Gender-Specific Renal Asymmetry in Drosophila” (PLoS ONE, 2012).)
